Measured values published in ChEMBL document CHEMBL1201862, “PubChem BioAssay data set” (2004).
Active and inactive are the calls of the source.

Experiments:
[1] = Luminescence Cell-Based Dose Confirmation HTS to Identify Activators of 5'UTR Stem-Loop Driven Alpha-Synuclein mRNA Translation in H4 Neuroglioblastoma Cells. [Related pubchem assays: 1829 (Project Summary), 1814 (Primary HTS)]; assay type: functional
[2] = Luminescence Cell-Based Dose Response HTS to Identify Activators of Luciferase Translation or Activity in H4 […] Cells. [Related pubchem assays: 1829 (Project Summary), 1814 (Primary HTS)]; assay type: functional
H4 = assay: Luminescence Cell-Based Dose Response HTS to Identify Activators of 5'UTR Stem-Loop Driven Prion Protein mRNA Translation in H4 Neuroglioblastoma Cells. [Related pubchem assays: 1829 (Project Summary), 1814 (Primary HTS)]; assay type: functional; conditions: Homo sapiens
[3] = HEp-2 cell cytotoxicity, dose response, cytotoxicity control for RSV inhibitor project, HTS (AID 2410); assay type: functional; conditions: human respiratory syncytial virus
[4] = biological target: T1, Corticotropin-releasing factor receptor 2/Corticotropin-releasing factor-binding protein (Homo sapiens, UniProt P24387+Q13324); assay: activators of CRF receptor 2 with binding protein – uHTS hits, confirmation (AID 602473); assay type: functional; conditions: read-out: EC50_Mean
T1 sequence (Q13324 whole entry): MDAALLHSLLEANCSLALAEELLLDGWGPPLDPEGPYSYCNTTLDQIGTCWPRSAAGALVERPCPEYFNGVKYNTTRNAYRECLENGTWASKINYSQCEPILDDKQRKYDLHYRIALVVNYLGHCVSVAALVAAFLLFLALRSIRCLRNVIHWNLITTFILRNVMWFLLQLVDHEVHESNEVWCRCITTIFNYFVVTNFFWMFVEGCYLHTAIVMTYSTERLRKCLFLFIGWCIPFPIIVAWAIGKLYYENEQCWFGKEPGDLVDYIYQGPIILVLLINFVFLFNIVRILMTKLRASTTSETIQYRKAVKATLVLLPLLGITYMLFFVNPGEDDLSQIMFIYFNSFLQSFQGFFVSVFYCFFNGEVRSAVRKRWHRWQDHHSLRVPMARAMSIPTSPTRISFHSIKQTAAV
T1 sequence (P24387 whole entry): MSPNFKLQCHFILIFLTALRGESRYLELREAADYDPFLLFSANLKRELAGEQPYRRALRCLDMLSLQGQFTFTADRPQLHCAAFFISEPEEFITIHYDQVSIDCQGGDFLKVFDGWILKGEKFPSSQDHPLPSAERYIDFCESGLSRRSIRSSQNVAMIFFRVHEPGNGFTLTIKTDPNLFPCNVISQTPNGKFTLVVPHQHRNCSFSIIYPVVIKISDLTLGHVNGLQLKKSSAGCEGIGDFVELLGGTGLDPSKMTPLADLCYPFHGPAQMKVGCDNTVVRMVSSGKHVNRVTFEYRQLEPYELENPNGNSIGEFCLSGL

[5] = growth suppression of PTEN-null colon cells, dose response, cell-based, HCT116 PTEN knockout (AID 1047); assay type: functional;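 also: HCT116 colon tumor cells with PTEN knocked out; cells exposed to compound for 60 hours before readout; potency for loss of cell viability measured by luminescence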
[6] = biological target: T1, Corticotropin-releasing factor receptor 2/Corticotropin-releasing factor-binding protein; assay: Dose Response confirmation of uHTS hits for small molecule antagonists of the CRF-binding protein and CRF-R2 receptor complex.; assay type: functional; conditions: read-out: IC50_Mean
H9c2 = assay: cells; assay type: functional, cell-based; conditions: Rattus norvegicus, H9c2, Myocardium;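 also: confirmatory concentration-response retest of ultra-high-throughput screening hits for modulation of myocardial damage; cell death induced by hydrogen peroxide oxidative stress; compound pretreatment for 60 min then peroxide exposure for 2 h; potency is for protecting the cells against peroxide damage rather than for killing them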
[7] = NIH-3T3 fibroblast cytotoxicity, dose response, cytotoxicity control, cell-based, fluorescence, Alamar Blue, secondary assay (AID 2327); assay type: functional;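 also: NIH-3T3 mouse fibroblasts cultured with fluconazole at 8 µg/mL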
cells [8] = assay type: functional, cell-based
cells [9] = assay type: functional, cell-based; remark: listed apart in the source
INS1 = assay: beta cell apoptosis inhibitors, cytokine rescue, dose response, luminescence, retest (AID 449756); assay type: functional, cell-based; conditions: Rattus norvegicus;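 also: cell death triggered by IL-1 beta plus TNF-alpha plus IFN-gamma mixture; protective hits raise ATP signal compared with cytokine alone wells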
Cytochrome P450 2C19 = Cytochrome P450 2C19 (Homo sapiens, UniProt P33261); assay: Cytochrome panel assay with activity outcomes. Panel member name: p450-cyp2c19 Compounds with AC50 equal or less than 10 uM are considered active; assay type: functional; conditions: read-out: AC50
Cytochrome P450 2C19, sequence (P33261 whole entry): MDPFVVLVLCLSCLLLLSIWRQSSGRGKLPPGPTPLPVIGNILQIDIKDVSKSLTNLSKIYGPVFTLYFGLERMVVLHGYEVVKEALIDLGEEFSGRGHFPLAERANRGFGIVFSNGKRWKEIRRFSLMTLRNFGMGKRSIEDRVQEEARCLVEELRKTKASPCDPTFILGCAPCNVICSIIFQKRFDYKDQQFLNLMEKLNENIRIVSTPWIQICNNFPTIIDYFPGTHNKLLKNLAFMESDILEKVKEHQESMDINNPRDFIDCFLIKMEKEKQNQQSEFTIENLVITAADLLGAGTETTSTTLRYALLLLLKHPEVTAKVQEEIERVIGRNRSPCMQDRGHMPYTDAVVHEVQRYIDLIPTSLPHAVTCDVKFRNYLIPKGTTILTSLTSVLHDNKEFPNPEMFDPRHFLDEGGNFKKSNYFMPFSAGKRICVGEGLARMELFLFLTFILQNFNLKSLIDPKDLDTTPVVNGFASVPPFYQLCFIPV

Cytochrome P450 3A4 = Cytochrome P450 3A4 (Homo sapiens, UniProt P08684);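 also: CYP3A4 tested as one member of a cytochrome P450 panel screen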
Cytochrome P450 3A4, sequence (P08684 whole entry): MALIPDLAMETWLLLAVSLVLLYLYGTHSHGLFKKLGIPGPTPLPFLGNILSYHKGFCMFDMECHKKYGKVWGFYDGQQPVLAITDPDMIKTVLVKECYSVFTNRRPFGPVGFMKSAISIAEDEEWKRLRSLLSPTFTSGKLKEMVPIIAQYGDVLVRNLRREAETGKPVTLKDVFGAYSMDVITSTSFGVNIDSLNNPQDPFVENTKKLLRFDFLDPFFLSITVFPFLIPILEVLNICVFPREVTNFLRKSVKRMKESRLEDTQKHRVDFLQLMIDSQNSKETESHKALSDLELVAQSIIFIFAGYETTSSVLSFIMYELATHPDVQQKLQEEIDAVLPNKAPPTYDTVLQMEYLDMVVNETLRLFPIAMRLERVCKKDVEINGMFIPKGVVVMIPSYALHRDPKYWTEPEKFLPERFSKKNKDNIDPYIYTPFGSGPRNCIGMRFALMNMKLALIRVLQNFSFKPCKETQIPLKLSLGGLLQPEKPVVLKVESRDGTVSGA

CC(C)(C)C(=O)N1CCN(c2nc3ccc(Cl)cc3s2)CC1
EC50 [1]: 0.369 µM (active) | EC50 [2]: 0.244 µM (active) | EC50 (H4): 15.2 µM (active)

COc1cc(CNc2ccc(N3CCCC3)cc2)ccc1OCc1ccccc1
CC50 [3]: 13 µM (active)

Cc1cc(NC(=O)C(C)C)ncc1NC(=O)CCc1ccccc1
EC50 [4]: > 53 µM (inactive)

CN(C)c1nn(C(=O)Nc2cccc(C(F)(F)F)c2)cc1-c1ccccc1
EC50 [5]: 42.1 µM (active)

CCN(CC(=O)Nc1c(F)cccc1F)C(=O)c1ccc(S(=O)(=O)N2CCC(C)CC2)cc1
IC50 [6]: > 47.1 µM (inactive) | EC50 [4]: > 53 µM (inactive)

O=C(Nc1ccc2nc(N3CCOCC3)sc2c1)c1cc2ccccc2o1
IC50 (H9c2): > 79 µM (inactive)

CCn1c(O)c(/C=N/N=C2CCCCC2)c2cc(C3=NNC(=O)CC3)ccc21
IC50 (H9c2): > 79 µM (inactive)

Cn1c2ccccc2c2ncn(CCC3=CCCCC3)c(=O)c21
EC50 [1]: 24 µM (active) | EC50 [2]: 21.7 µM (active) | EC50 (H4): 29.8 µM (active)

Clc1ccc(-c2nnc(NCc3ccccc3)c3ccccc23)cc1
IC50 [6]: > 47.1 µM (inactive) | EC50 [4]: > 53 µM (inactive)

O=C(Nc1ccc(Cl)cn1)c1cccc(S(=O)(=O)N2CCCC2)c1
IC50 [6]: > 47.1 µM (inactive) | EC50 [4]: > 53 µM (inactive)

COc1ccc(CN2C(=O)NC(=O)/C(=C\NNC(=O)c3ccccc3)C2=O)cc1
EC50 [7]: 56 µM (active)

COC(=O)CNC(=O)CSc1nnc2cc(C)c3ccccc3n12
EC50 (cells [8]): > 350 µM (not active) | EC50 (cells [9]): > 350 µM (not active)

O=C(CCCc1ccccc1)Nc1ccccn1
EC50 (cells [8]): > 350 µM (not active) | EC50 (cells [9]): > 350 µM (not active)

COc1ccc(C(=O)Nc2ccc3nc4n(c(=O)c3c2)CCCCC4)cc1OC
IC50 [6]: > 47.1 µM (inactive) | EC50 [4]: > 53 µM (inactive)

O=C(N[C@@H](Cc1ccccc1)C(=O)OCc1ccccc1)c1[nH]cnc1C(=O)N1CCc2ccccc2C1
CC50 [3]: 26.1 µM (active)

CN(Cc1cccc(Cl)c1)C(=O)C1CCC(=O)N(C2CC2)C1 (configuration not stated)
IC50 [6]: > 47.1 µM (inactive) | EC50 [4]: > 53 µM (inactive)

Cc1ccc(C(=O)NCc2cccnc2)o1
IC50 [6]: > 47.1 µM (inactive) | EC50 [4]: > 53 µM (inactive)

O=C(N/N=C/c1ccccc1O)/C(=C/c1ccccc1)CCO
EC50 (cells [8]): 50.4 µM (active) | EC50 (cells [9]): > 350 µM (not active) | AC50 (INS1): 2.57 µM (active)

COc1ccc2sc(NC(=O)NC(=O)c3c(Cl)cccc3Cl)nc2c1
CC50 [3]: 17.3 µM (active)

NC(=O)NC1CCCc2c1[nH]c1ccc(Cl)cc21 (configuration not stated)
CC50 [3]: 18 µM (active)

O=C1NC(=O)N(CCNc2ncc(C(F)(F)F)cc2Cl)C(=O)C1/C=N/OCc1c(F)cccc1Cl (configuration not stated)
AC50 (Cytochrome P450 2C19): 8.91 µM (inconclusive) | IC50 [6]: > 47.1 µM (inactive) | EC50 [4]: > 53 µM (inactive) | AC50 (Cytochrome P450 3A4): 3.16 µM (inconclusive)

O=S(=O)(NC(=S)NC1CCCCC1)c1ccc(Br)cc1
IC50 [6]: > 47.1 µM (inactive) | EC50 [4]: > 53 µM (inactive)

Nc1ccnn1-c1ccccc1
EC50 (cells [8]): > 350 µM (not active) | EC50 (cells [9]): > 350 µM (not active)
